# Patent US20260226069A1, “GCN2 AND PERK KINASE MODULATORS AND METHODS OF USE THEREOF” (Deciphera Pharmaceuticals, LLC, priority 2023, published 2026)
# Key:
# [1] = test system: ATF4 in Thapsigargin stimulated CCRF-CEM cells; test: CCRF-CEM TG ATF4 ELISA, phenotypic assay for cellular inhibition of PERK preactivated by thapsigargin; type: cell-based; details: Homo sapiens, 3 h, compound three hours then 1 μM thapsigargin for an additional hour
# Method: CCRF-CEM TG ATF4 ELISA, a Phenotypic Assay for Cellular Inhibition of PERK Preactivated by Thapsigargin (TG)
# CCRF-CEM leukemia cells (catalog #CCL-116) were obtained from the American Type Culture Collection (ATTC, Manassas, VA). Briefly, cells were grown in RPMI-1640 medium supplemented with 10% heat-inactivated fetal bovine serum (Invitrogen, Carlsbad, CA) and 1% Penicillin/Streptomycin/L-Glutamine at 37° C., 5% CO2, and 95% humidity. Cells were expanded until reaching one million cells per mL at which time they were subcultured or harvested for assay use. One million five hundred thousand cells per well in 1 mL complete growth medium were dispensed into 12-well plates and incubated overnight. A serial dilution of test compound was added and cells were incubated at 37° C., 5% CO2, and 95% for three hours, then 1 μM thapsigargin was added and cells were incubated for an additional hour at 37° C., 5% CO2, and 95%. Cells were lysed then ATF4 levels were measured using an ELISA assay (Proteintech, Rosemont, IL). Absorbance was measured at 450 nm and 544 nM using a Synergy2 or equivalent reader (Biotek, Winooski VT). Data was analyzed using PRISM software (Graphpad, San Diego, CA) to calculate IC50 values.
# GCN2 kinase = molecular target: T1, GCN2 kinase (Homo sapiens, UniProt Q9P2K8); test: Biochemical assay for GCN2 (TR-FRET kinase activity assay); details: 2 nM GCN2, 1 mM ATP, 3-hour incubation
# T1 construct: G556E with a; purchased Carna Biosciences
# Method: Biochemical assay for GCN2
# Activity of GCN2 kinase was determined using a TR-FRET kinase activity assay (e.g., Analytical Biochemistry, 2006, 356, 108-116). Assays were conducted in 384-well plates (13 μL assay volume) using 2 nM GCN2 (Carna Biosciences), 130 nM GFP-EIf2α (Invitrogen), 0.2 mg/mL E. coli tRNA (sigma) and 1 mM ATP in kinase buffer (Invitrogen). Inhibition of GCN2 was measured by adding serial diluted test compound (final assay concentration of 0.5% DMSO) followed by a 3-hour incubation. Tb-peIF2α (pSer52) antibody (Invitrogen) (2 nM final assay concentration) in kinase buffer containing EDTA (final assay concentration of 20 mM) was added. After a 60 min incubation at room temperature, TR-FRET was monitored using an excitation wavelength of 340 nm and emission wavelengths of 490 nm and 520 nm. The emission ratio (520/490) at each compound concentration of was converted to percent inhibition using controls (i.e., reaction with no test compound and reaction with a known inhibitor) and IC50 values were calculated by fitting a four-parameter sigmoidal curve to the data using Prism (GraphPad software).
# [2] = test system: ASNase treated CCRF-CEM cells; test: CCRF-CEM ASNase cell proliferation assay, phenotypic assay for cellular inhibition of GCN2; type: cell-based; details: Homo sapiens, 1 mU/mL ASNase, 72 h, resazurin
# Method: CCRF-CEM ASNase Cell Proliferation Assay, a Phenotypic Assay for Cellular Inhibition of GCN2.
# CCRF-CEM leukemia cells (catalog #CCL-116) were obtained from the American Type Culture Collect (ATTC, Manassas, VA). Cells were grown in RPMI-1640 medium supplemented with 10% heat-inactivated fetal bovine serum (Invitrogen, Carlsbad, CA) and 1% Penicillin/Streptomycin/L-Glutamine at 37° C., 5% CO2, and 95% humidity. Cells were expanded until reaching one million cells per mL at which time they are subcultured or harvested for assay use. Ten thousand cells per well in 200 μL RPMI-1640 supplemented with 10% heat-inactivated fetal bovine serum and 1% Penicillin/Streptomycin were dispensed into a 96-well black clear bottom plate. A serial dilution of test compound and 1 mU/mL ASNase was added in triplicate and plates were incubated for 72 h at 37° C., 5% CO2, and 95% humidity. At the end of the incubation, 40 μL of a […] solution of resazurin (Sigma, St. Louis, MO) in PBS was added to each well of the plate and plates were incubated for an additional 6 h at 37° C., 5% CO2, and 95% humidity. Plates were read on a Synergy2 or equivalent reader (Biotek, Winooski VT) using an excitation of 540 nm and an emission of 600 nm. Data was analyzed using GraphPad Prism software (GraphPad, San Diego, CA) to calculate IC50 values.
# PERK kinase = molecular target: T2, PERK kinase (Homo sapiens, UniProt Q9NZJ5, A704S); test: Biochemical assay for PERK (coupled pyruvate kinase/lactate dehydrogenase assay); details: 10 nM PERK, 1 mM ATP, reaction rate 2-3 h time frame, 30° C.
# T2 construct: GST (with thrombin site LVPRGS); purchased Beryllium
# Method: Biochemical Assay for PERK
# Activity of PERK kinase was determined spectroscopically using a coupled pyruvate kinase/lactate dehydrogenase assay that continuously monitors the ATP hydrolysis-dependent oxidation of NADH (Science, 2000, 289, 1938-1942). Assays were conducted in 384-well plates (100 μL final volume) using 10 nM PERK (from Beryllium), 0.25 mg/mL Myelin Basic Protein substrate, 1.5 units pyruvate kinase, 2.1 units lactate dehydrogenase, 1 mM phosphoenol pyruvate, 0.28 mM NADH and 1 mM ATP in assay buffer (100 mM Tris, pH 7.5, 15 mM MgCl2, 0.5 mM DTT, 0.004% (w/v) BSA, and 0.004% Triton X-100). Inhibition of PERK was measured by adding serial diluted test compound (final assay concentration of 1% DMSO). A decrease in absorption at 340 nm was monitored continuously for 6 hours at 30° C. on a multi-mode microplate reader (BioTek). The reaction rate was calculated using the 2-3 h time frame. The reaction rate at each concentration of compound was converted to percent inhibition using controls (i.e., reaction with no test compound and reaction with a known inhibitor) and IC50 values were calculated using software routines in Prism (GraphPad software).
# [3] = test system: ATF4 in H929 Multiple Myeloma cells; test: H929 ATF4 ELISA assay; type: cell-based; details: four hours, fold stimulation of cellular ATF4 relative to vehicle treated control
# Method: H929 multiple myeloma cells (catalog #CRL-9068) were obtained from the American Type Culture Collection (ATTC, Manassas, VA). Briefly, cells were grown in RPMI-1640 medium supplemented with 20% heat-inactivated fetal bovine serum (catalog #A3840002, ThermoFisher Scientific, Waltham, MA), 1% Penicillin/Streptomycin/L-Glutamine (catalog #10378016, ThermoFisher Scientific, Waltham, MA), and 0.05 mM 2-mercaptoethanol (catalog #21985-023, ThermoFisher Scientific, Waltham, MA) at 37° C., 5% CO2, and 95% humidity. Cells were expanded until reaching one million five hundred thousand cells per mL at which time they were sub-cultured or harvested for assay use. One million five hundred thousand cells per well in 1 mL complete growth medium were dispensed into 12-well plates and incubated overnight. A serial dilution of test compound was added, and cells were incubated at 37° C., 5% CO2, and 95% for four hours. Cells were lysed then ATF4 levels were measured using an ELISA assay (Proteintech, Rosemont, IL). Absorbance is measured at 450 nm and 544 nM using a Synergy2 or equivalent reader (Biotek, Winooski VT). Data were analyzed using PRISM software (Graphpad, San Diego, CA) to calculate fold stimulation of cellular ATF4 relative to vehicle treated control.
# T2 sequence (Q9NZJ5 with tags, fused parts or gaps A704S): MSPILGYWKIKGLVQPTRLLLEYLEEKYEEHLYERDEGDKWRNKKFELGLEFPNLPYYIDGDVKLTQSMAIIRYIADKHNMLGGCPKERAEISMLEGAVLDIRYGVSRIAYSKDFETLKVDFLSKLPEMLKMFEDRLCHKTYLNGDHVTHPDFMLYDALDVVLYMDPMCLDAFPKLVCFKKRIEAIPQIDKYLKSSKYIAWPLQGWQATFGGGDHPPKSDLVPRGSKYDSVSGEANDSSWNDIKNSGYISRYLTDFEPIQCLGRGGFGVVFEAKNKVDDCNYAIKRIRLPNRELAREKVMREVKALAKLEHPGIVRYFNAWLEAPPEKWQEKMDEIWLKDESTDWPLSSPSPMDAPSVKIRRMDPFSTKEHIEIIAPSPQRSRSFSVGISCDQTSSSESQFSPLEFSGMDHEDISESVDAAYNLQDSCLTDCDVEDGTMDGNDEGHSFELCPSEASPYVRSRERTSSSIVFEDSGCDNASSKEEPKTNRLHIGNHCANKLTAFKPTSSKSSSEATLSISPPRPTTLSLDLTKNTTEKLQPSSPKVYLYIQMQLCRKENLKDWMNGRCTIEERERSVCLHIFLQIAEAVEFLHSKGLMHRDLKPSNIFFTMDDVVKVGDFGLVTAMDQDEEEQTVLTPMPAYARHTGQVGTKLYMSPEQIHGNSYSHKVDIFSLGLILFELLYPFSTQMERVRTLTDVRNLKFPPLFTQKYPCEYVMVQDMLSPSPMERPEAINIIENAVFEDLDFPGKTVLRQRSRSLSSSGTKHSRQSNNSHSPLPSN
IC50 [1] [nM],IC50 (GCN2 kinase) [nM],IC50 [2] [nM],IC50 (PERK kinase) [nM],Structure (SMILES),H929 NS ATF4 ELISA [3]
100 to 500,100 to 500,100 to 500,≤ 100,"Cc1nc(-c2cccc(NS(=O)(=O)c3cc(Cl)cc(CO)c3Cl)c2F)c2c(N)nccn12 [Example 2, N-(3-(8-amino-3-methylimidazo[1,5-a]pyrazin-1-yl)-2-fluorophenyl)-2,5-dichloro-3-(hydroxymethyl)benzenesulfonamide]",+++ (an ATF4 stim greater than 10-fold and less than or equal to 20-fold)
1000 to 10000,≤ 100,1000 to 10000,≤ 100,Cc1nc(-c2cc(NS(=O)(=O)c3cc(Cl)cc(CO)c3Cl)cc(F)c2F)c2c(N)nccn12 [Example 4],+ (an ATF4 stim less than or equal to 5-fold)
100 to 500,100 to 500,100 to 500,≤ 100,CC(C)(C)c1nc(-c2cccc(NS(=O)(=O)c3cc(Cl)cc(CO)c3Cl)c2F)c2c(N)nccn12 [Example 9],+++ (an ATF4 stim greater than 10-fold and less than or equal to 20-fold)
